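Results reflect a 48-hour exposure of cells in 96-well plates to compound at five concentrations. GI50 marks 50% less growth. TGI marks complete inhibition of growth.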
Assays:
Test in all cases: NCI tumour cell line growth inhibition, 48 h
[1] = system: SF-539 CNS
[2] = system: PC-3 prostate
[3] = system: SK-MEL-28 melanoma
[4] = system: KM12 colon
[5] = system: SNB-19 CNS
[6] = system: MDA-N
[7] = system: SN12K1 renal
[8] = system: DMS 273 small cell lung
[9] = system: XF 498 CNS
[10] = system: P388/ADR leukemia
[11] = system: DLD-1 colon
[12] = system: P388 leukemia
[13] = system: DMS 114 small cell lung
[14] = system: HOP-18 NSCLC

N=c1c2c(=S)n(-c3ccccc3)c(=S)n(-c3ccccc3)c2nc(SCCCN2CCN(c3cccc(Cl)c3)CC2)n1-c1ccccc1
TGI [1]: > 100 µM | TGI [2]: > 100 µM | TGI [3]: > 100 µM | TGI [4]: > 100 µM

Nc1nc(Cl)cc(OCC2(CO)CC(OCc3ccccc3)C2)n1 (stereo unspecified)
GI50 [5]: 51.6 µM | GI50 [6]: 64.4 µM | GI50 [3]: 96.9 µM | GI50 [4]: 55.5 µM

N=C(N)c1ccc(-c2ccc(-c3ccccc3)s2)cc1
GI50 [1]: 1.63 µM | TGI [1]: 3 µM | GI50 [2]: 1.76 µM | TGI [2]: 3.47 µM | GI50 [3]: 1.67 µM | TGI [3]: 3.13 µM

CCCCCCCC/C=C\CCCCCCCC(=O)O
TGI [7]: 175 µM | TGI [8]: 210 µM | TGI [5]: 252 µM | TGI [9]: 13.6 µM | TGI [1]: 184 µM | TGI [10]: 200 µM | TGI [11]: 221 µM | TGI [3]: 329 µM | TGI [12]: 274 µM | TGI [13]: 194 µM | TGI [4]: > 500 µM

CC(=O)Oc1ccc2c(c1)oc1c3ccc(OC(C)=O)cc3n(C)c(=O)c21
TGI [5]: > 100 µM | TGI [1]: > 100 µM | TGI [2]: > 100 µM | TGI [6]: > 100 µM | TGI [3]: > 100 µM | TGI [4]: 20.6 µM

O=C1C=CC2=[N+]([O-])C(c3ccccc3)(c3ccccc3)C(=Nc3ccccc3)C2=C1
TGI [5]: 31.6 µM | TGI [14]: 7.52 µM | TGI [9]: 2.71 µM | TGI [1]: 19.5 µM | TGI [11]: 3.14 µM | TGI [13]: 3.32 µM

Cc1cc(C)c2c(c1)CC1(Cc3c(C)ccc(C)c3C1=O)C2=O (stereo unspecified)
TGI [5]: > 100 µM | TGI [1]: > 100 µM | TGI [2]: > 100 µM | TGI [6]: > 100 µM | TGI [3]: > 100 µM | TGI [4]: > 100 µM

CCNc1nnc(-c2nsc3ccccc23)s1
TGI [8]: > 100 µM | TGI [5]: 45.6 µM | TGI [14]: 91.6 µM | TGI [1]: > 100 µM | TGI [3]: > 100 µM | TGI [4]: > 100 µM

COC(=O)c1cccc(N[C@@H]2c3cc4c(cc3C(c3cc(OC)c(O)c(OC)c3)[C@H]3C(=O)OCC32)OCO4)c1 (stereo partly specified)
TGI [7]: 9.75 µM | TGI [8]: 3.35 µM | TGI [5]: > 63.4 µM | TGI [14]: 21.6 µM | TGI [9]: > 27.4 µM | TGI [1]: 3.64 µM | TGI [10]: 1.58 µM | TGI [11]: 15 µM | TGI [3]: > 100 µM | TGI [12]: 0.826 µM | TGI [13]: 4.3 µM | TGI [4]: 10.2 µM

C=C1C(=O)C[C@@]23CCC[C@@]12CC(OCOC)C3 (stereo partly specified)
TGI [7]: 4.13 µM | TGI [8]: 6.65 µM | TGI [5]: 28.7 µM | TGI [14]: 11.5 µM | TGI [9]: 8.33 µM | TGI [1]: 9.5 µM | TGI [10]: 2.09 µM | TGI [11]: 4.81 µM | TGI [3]: 8.14 µM | TGI [12]: 1.92 µM | TGI [13]: 5.13 µM | TGI [4]: 9.48 µM

S=P1(N2CCCCC2)Oc2ccc3ccccc3c2-c2c(ccc3ccccc23)O1
TGI [7]: > 100 µM | TGI [8]: > 100 µM | TGI [5]: > 100 µM | TGI [14]: > 100 µM | TGI [9]: > 100 µM | TGI [1]: > 100 µM | TGI [10]: > 100 µM | TGI [11]: > 100 µM | TGI [3]: > 100 µM | TGI [12]: > 100 µM | TGI [13]: > 100 µM | TGI [4]: > 100 µM

Cc1ccc([N+](=O)[O-])cc1S(=O)(=O)Nc1ccc(C2=NNC(c3ccccc3O)C2)cc1 (stereo unspecified)
TGI [5]: > 100 µM | TGI [1]: > 100 µM | TGI [2]: > 100 µM | TGI [6]: 93.5 µM | TGI [3]: > 100 µM | TGI [4]: 76.7 µM

Source: PubChem BioAssay (NCI)
